# How the values were obtained:
# [1] = test system: anesthetized guinea pig; assay: In vivo hypotensive activity, arterial blood pressure (ABP) in the guinea pig; conditions: intravenous, artificial ventilation
# Method: (§1) B. In Vivo Bronchodilator and Hypotensive Activity.
# (§2) The trachea of anesthetized guinea pig was cannulated and the ITP recorded on a polygraph under artificial ventilation. Arterial blood pressure (ABP; reflecting hypotensive activity) was also measured during the experiment. Either intravenous or intraduodenal routes of administration are used. […] The ratio of hypotensive ED20 /bronchodilating ED50 reflects an assessment of the separation of desirable bronchodilator activity from undesirable cardiovascular (hypotensive) effect in the compounds.
# [2] = test system: tracheal chains of guinea pig; assay: In vitro bronchodilator activity, tracheal chains of guinea pig (Magnus method); assay type: cell-based; conditions: Cavia porcellus, relative to maximum response to 0.1 mcg./ml. isoproterenol, read-out: EC50 (concentration which produces a relaxation which is 50% of the maximum response to 0.1 mcg./ml. of isoproterenol)
# Method: A. In Vitro Bronchodilator Activity.
# Tracheal chains of guinea pig were prepared by the method of A. Akcasu, Arch. Int. Pharmcodyn. […] The response to each test compound was recorded by the Magnus method and expressed as a percentage of the maximum response obtained with 0.1 mcg./ml. of isoproterenol prior to each experiment.
# [3] = test system: trachea of anesthetized guinea pig; assay: In vivo bronchodilator activity, decrease in intratracheal pressure (ITP) in the guinea pig; conditions: intravenous; for ED50: Cavia porcellus, anesthetized guinea pig, artificial ventilation, read-out: ITP ED50 (dose resulting in a 50% decrease in intratracheal pressure); for Ratio ABP/ITP (hypotensive ED20/bronchodilating ED50): separation of bronchodilator activity from hypotensive effect
# Method: as §1, §2
SMILES,ABP ED20 (dose which reduces arterial blood pressure by 20%) [1],EC50 [2],ED50 [3],Ratio ABP/ITP (hypotensive ED20/bronchodilating ED50) [3]
"Cn1c(=O)c2[nH]cnc2n(C)c1=O [Aminophylline, reference compound]",1.4 mg/kg,–,–,–
"CCCSc1nc(N)c2ncn(C3C=CCCC3)c2n1 (stereo not drawn) [Example 1, 9-(2-Cyclohexenyl)-2-n-propylthio-9H-adenine]",> 3 mg/kg,0.02 µg/mL,0.31 mg/kg,> 9.7
"CCCSc1nc(N)c2ncn(C3CCCCC3)c2n1 [Example 2, 9-Cyclohexyl-2-n-propylthio-9H-adenine]",> 3 mg/kg,0.19 µg/mL,1.1 mg/kg,> 2.7
